Where “and” joins values, the source holds several entries; their conditions need not be identical. Identical values can stand only once.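 1) Cells in 96-well plates. 2) Compound, 48 h, 5 concentrations. 3) Linear interpolation between surrounding doses. 4) Unreached endpoint = highest concentration. GI50 = concentration required for 50% inhibition of growth. TGI is the concentration that stops growth completely.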
Legend:
Assay in all cases: DTP human tumour cell line panel, 48 h
ACHN renal = test system: ACHN renal
EKVX NSCLC = test system: EKVX NSCLC
HS 578T breast = test system: HS 578T breast
MALME-3M melanoma = test system: MALME-3M melanoma
NCI-H226 lung = test system: NCI-H226 lung
SF-295 CNS = test system: SF-295 CNS
SF-539 CNS = test system: SF-539 CNS
SN12C renal = test system: SN12C renal
SNB-19 CNS = test system: SNB-19 CNS
SNB-75 CNS = test system: SNB-75 CNS

SMILES	GI50 (ACHN renal)	TGI (ACHN renal)	GI50 (EKVX NSCLC)	TGI (EKVX NSCLC)	GI50 (HS 578T breast)	TGI (HS 578T breast)	GI50 (MALME-3M melanoma)	TGI (MALME-3M melanoma)	GI50 (NCI-H226 lung)	TGI (NCI-H226 lung)	GI50 (SF-295 CNS)	TGI (SF-295 CNS)	GI50 (SF-539 CNS)	TGI (SF-539 CNS)	GI50 (SN12C renal)	TGI (SN12C renal)	GI50 (SNB-19 CNS)	TGI (SNB-19 CNS)	GI50 (SNB-75 CNS)	TGI (SNB-75 CNS)
Cc1cc(Cl)cc(Cc2cc(Cl)cc(C)c2O)c1O	2.26 µM	7.26 µM	3.62 µM	68.8 µM	2.55 µM	7.75 µM	2.35 µM	6.86 µM	4.17 µM	20.1 µM	2.49 µM	7.14 µM	2.45 µM	6.62 µM	2.27 µM	9.7 µM	3.32 µM	16.8 µM	1.95 µM	7.19 µM
CN(C)CCOC(=O)Nc1nc2ccc(Sc3ccccc3)cc2[nH]1	6.52 µM	19.2 µM	5.75 µM	22.7 µM	4 µM	28.8 µM	4.93 µM	19.5 µM	4.61 µM	28.1 µM	2.96 µM	13.4 µM	2.27 µM	5.85 µM	5.23 µM	27.5 µM	4.87 µM	19.5 µM	1.98 µM	7.66 µM
Cc1ccc(S(=O)(=O)N2CCc3ccc(O)c4c3C2Cc2ccc3c(c2-4)OCO3)cc1 (stereo not given)	0.769 µM	> 60.8 µM	4.34 µM	> 100 µM	1.06 µM	> 50.6 µM	0.775 µM	30.4 µM	4.71 µM	34.3 µM	1.38 µM	12 µM	1.02 µM	5.26 µM	2.32 µM	> 40 µM	1.4 µM	> 100 µM	0.288 µM	9.59 µM
O=C(O)Cc1cccc2c(=O)c3cccc([N+](=O)[O-])c3oc12		> 100 µM		> 100 µM		> 100 µM		> 100 µM		> 100 µM		> 100 µM		> 100 µM		> 100 µM		> 100 µM		> 100 µM
Cc1ccc(OCC2OC(n3cnc4c(Br)nc(Br)nc43)CC2Oc2ccc(C)cc2)cc1 (stereo not given)	5.29 µM	14.8 µM and 4.93 µM	1.52 µM	3.25 µM and 4.15 µM	14.4 µM and 2.96 µM	36 µM and 7.18 µM	6.5 µM	16.3 µM and 21.6 µM	1.63 µM	33 µM and 3.77 µM	2.22 µM	5.28 µM and 25.9 µM	0.466 µM	10.2 µM and 15.6 µM	9.93 µM	22.9 µM and 14.2 µM	11.8 µM	22.9 µM and 17.8 µM	8.32 µM	18.3 µM and 9.29 µM
Nc1ccc(Sc2c3ccccc3nc3ccccc23)cc1		28.3 µM		58.9 µM		> 68.4 µM		36.2 µM		58.4 µM		47.5 µM		31 µM		36.1 µM		51.6 µM		36.2 µM
Cc1cc(=O)oc2cc(OC/C=C3\CCC(=O)O3)ccc12	5.05 µM	15.4 µM	21 µM	54.4 µM	22.9 µM	> 87.4 µM	13.6 µM	33 µM	24 µM	> 63.1 µM	59 µM	> 100 µM	13.1 µM	46.1 µM	15.2 µM	34.9 µM	15.5 µM	49.2 µM	16.8 µM	40.1 µM
COC1=CC(=O)c2nc(Cl)ccc2C1=O	1.67 µM	3.04 µM	1.78 µM	3.53 µM	2.22 µM	6.18 µM	1.72 µM	3.38 µM	7.61 µM	21.5 µM	1.69 µM	3.51 µM	1.62 µM	3.03 µM	1.72 µM	3.19 µM	13.7 µM	28 µM	1.35 µM	2.73 µM
O=C(O[C@H]1CCN2C[C@H]3C[C@H](CN4C(=O)CCC[C@H]34)[C@@H]2C1)c1ccc(O)cc1		> 100 µM		> 100 µM		> 100 µM		> 100 µM		> 100 µM		> 100 µM		> 100 µM		> 100 µM		> 100 µM		> 100 µM
CC1=C([Se]CC(OC(=O)[C@@H](CO)NC(=O)OC(C)(C)C)C(=O)NCCCCCC(=O)OCc2ccccc2)C(=O)c2ccccc2C1=O (stereo not given in full)	1.65 µM	3.07 µM	1.81 µM	3.87 µM	1.99 µM	4.64 µM	2.07 µM	3.82 µM	2.25 µM	4.41 µM	0.321 µM	1.51 µM	1.7 µM	3.09 µM	1.95 µM	3.59 µM	0.774 µM	2.11 µM	1.29 µM	2.55 µM
O=C(O)CCC(C(=O)O)N1C(=O)C2C3CCC(C3)C2C1=O (stereo not given)		> 100 µM		> 100 µM		> 100 µM		> 100 µM		> 100 µM		> 100 µM		> 100 µM		> 100 µM		> 100 µM		> 100 µM
